Test results: US11261201B2 (priority 2018, dated 2022)
≈ marks a conversion by molar mass, not a printed value. Where two headings read alike, the source gives them in different places.

What was measured:
[1] = system: E. coli K-12; experiment: Resistance development on LB-agar plates, combination therapy; conditions: B1 in combination with anti-LeuS Tavaborole, adjusted for dose equivalence; 10^8 cells plated, 37° C., 24 hours; multiple independent experiments (FIG. 1)
Protocol: Experimental details: Cultures of E. coli K-12 were started from single colonies on LB-agar plates and were grown in LB for 36 hours with shaking at 37° C. Following that, 10^8 cells were plated on LB-agar plates containing B1 or Tavaborole alone or in combination adjusted for dose equivalence and incubated at 37° C. for 24 hours.

[2] = system: E. coli; experiment: Gram negative MIC protocol (OD600, LB, 24 h); conditions: Escherichia coli
Protocol: (§1) Overnight bacterial cultures were grown in LB with no added antibiotics at 37° C. with shaking. A 1:1000 dilution of these cultures into LB was exposed to concentration gradients of compounds in 96-well plates (100 μL per well assay volume). Resulting plates were incubated at 37° C. for 24 h without shaking, and OD600 was measured at the end of the incubation. MICs were determined as the lowest concentrations at which OD600 remained at baseline.

[3] = system: A. baumannii; experiment: Gram negative MIC protocol (OD600, LB, 24 h); conditions: Acinetobacter baumannii
Protocol: as §1

[4] = system: H37RvMA; experiment: Tuberculosis Alamar Blue/Resazurin assay (MIC); type: cell-based; conditions: Mycobacterium tuberculosis, H37RV, read-out: WT H37Rv MTB Activity
[5] = read-out: MIC E. coli delta-TolC LB Media, E. coli delta-TolC, LB media, OD600
[6] = read-out: MIC WT E. coli LB Media, WT E. coli, LB media, OD600
[7] = read-out: MIC A. baumannii LB Media, A. baumannii, LB media, 24 h, OD600

Row | SMILES | development of resistance [1] | MIC [2, 5] [µM] | MIC [2, 6] [µM] | MIC ([3]; read-out: MIC A. baumannii LB Media) [µM] | MIC [4] [µM] | MIC [3, 7] [µM] | MIC ([4]; WT H37Rv MTB) [µM]
1 | C1=C(CCNCc2ccccc2)CCCC1 [B1, N-benzyl-2-(cyclohex-1-en-1-yl)ethan-1-amine] | did not develop resistance | 46 (≈ 9.91 µg/mL) | 60 (≈ 12.9 µg/mL) | 150 (≈ 32.3 µg/mL) | > 150 | – | –
2 | CC(CC1CCCCC1)NCc1ccccc1OCc1ccccc1Oc1ccccc1 (stereo not drawn) [B463, 1-cyclohexyl-N-(2-((2-phenoxybenzyl)oxy)benzyl)propan-2-amine] | – | 4 (≈ 1.72 µg/mL) | > 150 | – | – | > 150 | 17 (≈ 7.3 µg/mL)
3 | CC1CCCC(CCN2Cc3ccccc3CC2=O)C1 (stereo not drawn) [B464, 2-(2-(3-methylcyclohexyl)ethyl)-1,4-dihydroisoquinolin-3(2H)-one] | – | 90 (≈ 24.4 µg/mL) | > 150 | – | – | > 150 | 2 (≈ 0.543 µg/mL)
4 | CC1CCC(CC(C)NCc2ccccc2OCc2ccccc2F)CC1 (stereo not drawn) [B465, N-(2-((2-fluorobenzyl)oxy)benzyl)-1-(4-methylcyclohexyl)propan-2-amine] | – | 7 (≈ 2.59 µg/mL) | > 150 | – | – | 90 (≈ 33.3 µg/mL) | 20 (≈ 7.39 µg/mL)
5 | CC(CC1CCCCC1)NCc1ccccc1CC(N)C(=O)O (stereo not drawn) [B466, 2-amino-3-(2-(((1-cyclohexylpropan-2-yl)amino)methyl)phenyl)propanoic acid] | – | > 150 | > 150 | – | – | > 150 | > 55
